Source: patent US8969516B2, “Method of hydrolysis of peptide bond” (priority 2006, dated 2015)

Test: MALDI-TOF screening of Ni^2+ dependent hydrolysis in a combinatorial peptide library
Format: physicochemical
Conditions: Ni^2+ 2 mM, pH 8.2, 10 mM Tris, score=24/tm
Procedure, shortened: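 Sublibraries of Ac-Gly-Ala-Ser/Thr-X-His-Z-Lys-Phe-Leu-NH2, randomized at Z and fixed at X, were hydrolyzed at 1 mM total peptide with 2 mM Ni2+ in 10 mM Tris, pH 8.2, at 37 °C or 45 °C. Cleavage was scored visually in MALDI-TOF spectra at 2, 4, 6 and 8 h.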

[1] = CH3CO-Gly-Ala-Ser-X-His-Z-Lys-Phe-Leu-NH2 library, 37° C.
[2] = CH3CO-Gly-Ala-Ser-X-His-Z-Lys-Phe-Leu-NH2 library, 45° C.
[3] = CH3CO-Gly-Ala-Thr-X-His-Z-Lys-Phe-Leu-NH2 library, 37° C.
[4] = CH3CO-Gly-Ala-Thr-X-His-Z-Lys-Phe-Leu-NH2 library, 45° C.

Row | Substance | hydrolysis score from MALDI-TOF screening [1] | hydrolysis score from MALDI-TOF screening [2] | hydrolysis score from MALDI-TOF screening [3] | hydrolysis score from MALDI-TOF screening [4]
1 | Ac-GASTHMKFL-NH2 [STHM] | 0 (a score of 0 if no trace of the product of hydrolysis was seen after 8 hours of incubation) | 0 (a score of 0 if no trace of the product of hydrolysis was seen after 8 hours of incubation) | – | –
2 | Ac-GATVHWKFL-NH2 [TVHW] | – | – | 0 (a score of 0 if no trace of the product of hydrolysis was seen after 8 hours of incubation) | 3 (a score of 3 for detection at 8 hours)
3 | Ac-GASGHLKFL-NH2 [SGHL] | 0 (a score of 0 if no trace of the product of hydrolysis was seen after 8 hours of incubation) | 3 (a score of 3 for detection at 8 hours) | – | –
4 | Ac-GATLHFKFL-NH2 [TLHF] | – | – | 0 (a score of 0 if no trace of the product of hydrolysis was seen after 8 hours of incubation) | 0 (a score of 0 if no trace of the product of hydrolysis was seen after 8 hours of incubation)
5 | Ac-GATHHNKFL-NH2 [THHN] | – | – | 0 (a score of 0 if no trace of the product of hydrolysis was seen after 8 hours of incubation) | 0 (a score of 0 if no trace of the product of hydrolysis was seen after 8 hours of incubation)
6 | Ac-GATNHYKFL-NH2 [TNHY] | – | – | 0 (a score of 0 if no trace of the product of hydrolysis was seen after 8 hours of incubation) | 0 (a score of 0 if no trace of the product of hydrolysis was seen after 8 hours of incubation)
7 | Ac-GATWHPKFL-NH2 [TWHP] | – | – | 0 (a score of 0 if no trace of the product of hydrolysis was seen after 8 hours of incubation) | 0 (a score of 0 if no trace of the product of hydrolysis was seen after 8 hours of incubation)
8 | Ac-GASAHIKFL-NH2 [SAHI] | 0 (a score of 0 if no trace of the product of hydrolysis was seen after 8 hours of incubation) | 4 (a score of 4 for detection at 6 hours) | – | –
9 | Ac-GATMHSKFL-NH2 [TMHS] | – | – | 0 (a score of 0 if no trace of the product of hydrolysis was seen after 8 hours of incubation) | 0 (a score of 0 if no trace of the product of hydrolysis was seen after 8 hours of incubation)
10 | Ac-GASPHSKFL-NH2 [SPHS] | 0 (a score of 0 if no trace of the product of hydrolysis was seen after 8 hours of incubation) | 0 (a score of 0 if no trace of the product of hydrolysis was seen after 8 hours of incubation) | – | –
11 | Ac-GASNHTKFL-NH2 [SNHT] | 0 (a score of 0 if no trace of the product of hydrolysis was seen after 8 hours of incubation) | 0 (a score of 0 if no trace of the product of hydrolysis was seen after 8 hours of incubation) | – | –
12 | Ac-GATIHLKFL-NH2 [TIHL] | – | – | 0 (a score of 0 if no trace of the product of hydrolysis was seen after 8 hours of incubation) | 0 (a score of 0 if no trace of the product of hydrolysis was seen after 8 hours of incubation)
13 | Ac-GATQHIKFL-NH2 [TQHI] | – | – | 0 (a score of 0 if no trace of the product of hydrolysis was seen after 8 hours of incubation) | 3 (a score of 3 for detection at 8 hours)
14 | Ac-GATIHDKFL-NH2 [TIHD] | – | – | 0 (a score of 0 if no trace of the product of hydrolysis was seen after 8 hours of incubation) | 0 (a score of 0 if no trace of the product of hydrolysis was seen after 8 hours of incubation)
15 | Ac-GASMHQKFL-NH2 [SMHQ] | 0 (a score of 0 if no trace of the product of hydrolysis was seen after 8 hours of incubation) | 0 (a score of 0 if no trace of the product of hydrolysis was seen after 8 hours of incubation) | – | –
16 | Ac-GASGHKKFL-NH2 [SGHK] | 0 (a score of 0 if no trace of the product of hydrolysis was seen after 8 hours of incubation) | 3 (a score of 3 for detection at 8 hours) | – | –
17 | Ac-GATSHYKFL-NH2 [TSHY] | – | – | 0 (a score of 0 if no trace of the product of hydrolysis was seen after 8 hours of incubation) | 0 (a score of 0 if no trace of the product of hydrolysis was seen after 8 hours of incubation)

Row | Substance | hydrolysis score from MALDI-TOF screening [1] | hydrolysis score from MALDI-TOF screening [2] | hydrolysis score from MALDI-TOF screening [3] | hydrolysis score from MALDI-TOF screening [4]
18 | Ac-GASPHRKFL-NH2 [SPHR] | 0 (a score of 0 if no trace of the product of hydrolysis was seen after 8 hours of incubation) | 0 (a score of 0 if no trace of the product of hydrolysis was seen after 8 hours of incubation) | – | –
19 | Ac-GATGHQKFL-NH2 [TGHQ] | – | – | 0 (a score of 0 if no trace of the product of hydrolysis was seen after 8 hours of incubation) | 0 (a score of 0 if no trace of the product of hydrolysis was seen after 8 hours of incubation)
20 | Ac-GASNHSKFL-NH2 [SNHS] | 0 (a score of 0 if no trace of the product of hydrolysis was seen after 8 hours of incubation) | 0 (a score of 0 if no trace of the product of hydrolysis was seen after 8 hours of incubation) | – | –
21 | Ac-GATTHGKFL-NH2 [TTHG] | – | – | 0 (a score of 0 if no trace of the product of hydrolysis was seen after 8 hours of incubation) | 0 (a score of 0 if no trace of the product of hydrolysis was seen after 8 hours of incubation)
22 | Ac-GATWHNKFL-NH2 [TWHN] | – | – | 0 (a score of 0 if no trace of the product of hydrolysis was seen after 8 hours of incubation) | 0 (a score of 0 if no trace of the product of hydrolysis was seen after 8 hours of incubation)
23 | Ac-GASWHHKFL-NH2 [SWHH] | 4 (a score of 4 for detection at 6 hours) | 3 (a score of 3 for detection at 8 hours) | – | –
24 | Ac-GATSHEKFL-NH2 [TSHE] | – | – | 0 (a score of 0 if no trace of the product of hydrolysis was seen after 8 hours of incubation) | 0 (a score of 0 if no trace of the product of hydrolysis was seen after 8 hours of incubation)
25 | Ac-GASKHYKFL-NH2 [SKHY] | 4 (a score of 4 for detection at 6 hours) | 4 (a score of 4 for detection at 6 hours) | – | –
26 | Ac-GASFHSKFL-NH2 [SFHS] | 0 (a score of 0 if no trace of the product of hydrolysis was seen after 8 hours of incubation) | 0 (a score of 0 if no trace of the product of hydrolysis was seen after 8 hours of incubation) | – | –
27 | Ac-GASRHFKFL-NH2 [SRHF] | 4 (a score of 4 for detection at 6 hours) | 4 (a score of 4 for detection at 6 hours) | – | –
28 | Ac-GASGHMKFL-NH2 [SGHM] | 0 (a score of 0 if no trace of the product of hydrolysis was seen after 8 hours of incubation) | 0 (a score of 0 if no trace of the product of hydrolysis was seen after 8 hours of incubation) | – | –
29 | Ac-GASFHTKFL-NH2 [SFHT] | 0 (a score of 0 if no trace of the product of hydrolysis was seen after 8 hours of incubation) | 0 (a score of 0 if no trace of the product of hydrolysis was seen after 8 hours of incubation) | – | –
30 | Ac-GASYHVKFL-NH2 [SYHV] | 6 (a score of 6 for detection at 4 hours) | 4 (a score of 4 for detection at 6 hours) | – | –
31 | Ac-GATMHQKFL-NH2 [TMHQ] | – | – | 0 (a score of 0 if no trace of the product of hydrolysis was seen after 8 hours of incubation) | 0 (a score of 0 if no trace of the product of hydrolysis was seen after 8 hours of incubation)
32 | Ac-GASKHAKFL-NH2 [SKHA] | 0 (a score of 0 if no trace of the product of hydrolysis was seen after 8 hours of incubation) | 0 (a score of 0 if no trace of the product of hydrolysis was seen after 8 hours of incubation) | – | –
33 | Ac-GASLHRKFL-NH2 [SLHR] | 3 (a score of 3 for detection at 8 hours) | 4 (a score of 4 for detection at 6 hours) | – | –
34 | Ac-GATKHVKFL-NH2 [TKHV] | – | – | 3 (a score of 3 for detection at 8 hours) | 6 (a score of 6 for detection at 4 hours)
